The target of one experiment is T1, STAT3 (Homo sapiens, UniProt P40763).
T1 construct: Recombinant STAT3 protein (STAT3(G127-1722))
The experiment in a line: STAT3 Fluorescence Polarization (FP) Assay. The class given is binding. How it is done: STAT3 Fluorescence Polarization (FP) Assay
An FP assay was developed to determine IC50 values for test substances. Recombinant STAT3 protein (STAT3(G127-1722)) at 25 nM was combined with a fluorescently labeled, phosphotyrosine peptide probe (5-FAM-GpYLPQTV-NH2) at 2 nM in FP buffer (10 mM HEPES pH 7.4, 50 mM NaCl, 1 mM EDTA, 0.05% Tween 20.2 mM DTT). 50 μL of STAT3-probe mixture was added to serial diluted compounds in black, 96-well plates (Greiner BioOne 655076) to a final concentration of 1% DMSO. Reaction components were mixed, and FP was measured after 45-minute incubation at room temperature using a Tecan Spark multimode plate reader. FP signal (mP) was plotted against the log concentration of the test substances and IC50 values were calculated by nonlinear regression analysis using GraphPad Prism software. For STAT3 FP assay. A=≤100 nM; B=>100-1000 nM; C=>1-10 μM; and D=>10 μM.
For orientation: Fluorescence polarisation rises when a labelled molecule tumbles more slowly, as on binding a larger partner.

A further experiment deals with T2, STAT6 (Homo sapiens, UniProt P42226).
T2 construct: Recombinant STAT6 protein (STAT6(W123-T658))
T2 sequence (P42226 123-658): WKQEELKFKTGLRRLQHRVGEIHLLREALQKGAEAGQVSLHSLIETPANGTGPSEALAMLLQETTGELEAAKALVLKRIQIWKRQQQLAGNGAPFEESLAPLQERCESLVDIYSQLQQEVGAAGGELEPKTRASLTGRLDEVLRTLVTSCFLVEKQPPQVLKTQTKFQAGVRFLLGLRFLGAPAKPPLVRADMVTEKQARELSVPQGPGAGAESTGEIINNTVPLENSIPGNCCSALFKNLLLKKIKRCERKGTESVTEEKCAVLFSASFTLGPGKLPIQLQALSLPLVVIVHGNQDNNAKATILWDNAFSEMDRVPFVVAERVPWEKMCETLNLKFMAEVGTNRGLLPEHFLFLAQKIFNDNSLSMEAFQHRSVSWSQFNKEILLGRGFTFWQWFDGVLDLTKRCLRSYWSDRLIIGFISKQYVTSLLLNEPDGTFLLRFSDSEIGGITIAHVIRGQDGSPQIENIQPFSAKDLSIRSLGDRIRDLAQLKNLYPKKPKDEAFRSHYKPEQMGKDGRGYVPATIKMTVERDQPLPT
The experiment is described as follows: STAT6 Fluorescence Polarization (FP) Assay. The class given is binding. The method, then: STAT6 Fluorescence Polarization (FP) Assay
An FP assay was developed to determine IC50 values for test substances. Recombinant STAT6 protein (STAT6(W123-T658)) at 250 nM was combined with a fluorescently labeled, phosphotyrosine peptide probe (5-FAM-Ap[…]-NH2) at 2 nM in FP buffer (10 mM HEPES pH 7.4, 50 mM NaCl, 1 mM EDTA, 0.05% Tween 20, 2 mM DTT), 50 μL of STAT6-probe mixture was added to serial diluted compounds in black, 96-well plates (Greiner BioOne 655076) to a final concentration of 1% DMSO. Reaction components were mixed, and FP was measured after 45-minute incubation at room temperature using a Tecan Spark multimode plate reader. FP signal (mP) was plotted against the log concentration of the test substances and IC50 values were calculated by nonlinear regression analysis using GraphPad Prism software. For STAT6 FP assay. A=≤300 nM; B=>300-3000 nM; C=>3-30 μM; and D=>30 μM.

Another experiment concerns the target T3, pSTAT6 (Homo sapiens, UniProt P42226).
T3 construct: pY641-STAT6 MSD read-out
T3 sequence (P42226 1-847): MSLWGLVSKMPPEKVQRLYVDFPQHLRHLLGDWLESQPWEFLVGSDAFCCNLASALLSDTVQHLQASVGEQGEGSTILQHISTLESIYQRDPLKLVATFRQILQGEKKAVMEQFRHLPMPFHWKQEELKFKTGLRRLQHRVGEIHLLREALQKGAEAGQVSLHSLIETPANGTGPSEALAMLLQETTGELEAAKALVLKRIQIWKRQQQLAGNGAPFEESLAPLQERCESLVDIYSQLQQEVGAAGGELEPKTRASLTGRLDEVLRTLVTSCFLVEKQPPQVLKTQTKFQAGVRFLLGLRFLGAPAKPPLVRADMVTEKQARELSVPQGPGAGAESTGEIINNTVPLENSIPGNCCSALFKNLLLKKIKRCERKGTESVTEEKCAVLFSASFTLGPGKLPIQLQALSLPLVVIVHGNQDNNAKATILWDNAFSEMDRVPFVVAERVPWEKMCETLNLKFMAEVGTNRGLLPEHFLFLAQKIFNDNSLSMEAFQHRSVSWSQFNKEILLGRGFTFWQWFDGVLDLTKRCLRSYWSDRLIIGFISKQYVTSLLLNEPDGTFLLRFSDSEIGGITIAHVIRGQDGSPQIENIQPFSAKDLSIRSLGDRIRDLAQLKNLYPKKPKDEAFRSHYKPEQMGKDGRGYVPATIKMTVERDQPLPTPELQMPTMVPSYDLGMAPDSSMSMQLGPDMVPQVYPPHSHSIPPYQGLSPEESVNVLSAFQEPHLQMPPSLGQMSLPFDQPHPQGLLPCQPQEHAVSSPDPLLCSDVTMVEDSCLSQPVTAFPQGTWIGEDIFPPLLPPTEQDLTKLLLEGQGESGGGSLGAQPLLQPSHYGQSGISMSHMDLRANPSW
The experiment in a line: MSD-pSTAT-PBMC Assay, pSTAT6 (IL-4 stimulated PBMC). In kind it is cell-based. The method, boiled down:
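Human PBMC were recovered overnight, treated 3 h with compound, then stimulated for 10 min with 10 ng/mL IL-6 (pSTAT3) or 1 ng/mL IL-4 (pSTAT6). Lysates were read by MSD sandwich immunoassay, with total STAT capture and pY705-STAT3 or pY641-STAT6 detection. Signal minus unstimulated wells was normalized to DMSO, and IC50 came from a variable-slope fit.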

Setting [1] is: recombinant STAT3 25 nM, probe 5-FAM-GpYLPQTV-NH2 2 nM, 45 min, room temperature, read-out: STAT3 FP IC50.
Setting [2] is: recombinant STAT6(W123-T658) 250 nM, probe 5-FAM-Ap[…]-NH2 2 nM, 45 min, room temperature, read-out: STAT6 FP IC50.
The mark [3] stands for this setting: compound 3 hrs, then 1 ng/mL IL-4 for 10 min, pY641-STAT6, read-out: pSTAT6 IC50.

Structures are written as SMILES. Read-outs that look alike come from different tables or passages of the source. Bounds are passed on as bounds.

T1 sequence (P40763 127-722 limits assumed): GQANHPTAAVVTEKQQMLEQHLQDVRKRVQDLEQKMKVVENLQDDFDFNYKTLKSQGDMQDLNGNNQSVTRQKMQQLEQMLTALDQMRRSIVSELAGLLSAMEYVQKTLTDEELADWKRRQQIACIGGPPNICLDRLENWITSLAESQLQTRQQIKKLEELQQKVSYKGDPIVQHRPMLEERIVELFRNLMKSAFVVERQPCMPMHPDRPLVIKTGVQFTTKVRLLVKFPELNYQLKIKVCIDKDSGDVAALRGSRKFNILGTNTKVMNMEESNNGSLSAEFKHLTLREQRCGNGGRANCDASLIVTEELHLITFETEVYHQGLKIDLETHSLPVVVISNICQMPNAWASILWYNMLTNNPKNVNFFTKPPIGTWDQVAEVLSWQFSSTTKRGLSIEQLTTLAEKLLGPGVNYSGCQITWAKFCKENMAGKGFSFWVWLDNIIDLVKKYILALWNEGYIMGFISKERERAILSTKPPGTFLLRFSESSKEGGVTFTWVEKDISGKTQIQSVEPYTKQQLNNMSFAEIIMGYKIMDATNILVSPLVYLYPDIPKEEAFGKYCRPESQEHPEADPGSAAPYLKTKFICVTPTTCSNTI

Regarding `Cc1ccc2onc(C(=O)N3CC[C@H]4CC[C@@H](C(=O)N(C)CC(=O)N[C@H](C(=O)N5C[C@H](O)C[C@H]5C(=O)N[C@@H](C)c5ccc(-c6scnc6C)cc5)C(C)(C)C)N4C(=O)[C@@H](NC(=O)c4ccc5ccc(C(F)(F)P(=O)(O)O)cc5c4)C3)c2c1` [Compound 27, (difluoro(7-(((5S,8S,10aR)-8-((2-(((S)-1-((2S,4R)-4-hydroxy-2-(((S)-1-(4-(4-methylthiazol-5-yl)phenyl)ethyl)carbamoyl)pyrrolidin-1-yl)-3,3-dimethyl-1-oxobutan-2-yl)amino)-2-oxoethyl)(methyl)carbamoyl)-3-(5-methylbenzo[d]isoxazole-3-carbonyl)-6-oxodecahydropyrrolo[1,2-a][1,5]diazocin-5-yl)carbamoyl)naphthalen-2-yl)methyl)phosphonic acid], the figures for the IC50 on STAT3 (setting [1]), on STAT6 (setting [2]) and on pSTAT6 (setting [3]) were 1 to 10 µM, < 0.3 µM and > 3 µM, respectively.

For `Cc1ccc2[nH]nc(C(=O)N3CC[C@H]4CC[C@@H](C(=O)N(C)CCCCCCC#Cc5cccc6c5CN(C5CCC(=O)NC5=O)C6=O)N4C(=O)[C@@H](NC(=O)c4ccc5ccc(CP(=O)(O)O)cc5c4)C3)c2c1` (stereo partly drawn) [Compound 15, ((7-(((5S,8S,10aR)-8-((8-(2-(2,6-dioxopiperidin-3-yl)-1-oxoisoindolin-4-yl)oct-7-yn-1-yl)(methyl)carbamoyl)-3-(5-methyl-1H-indazole-3-carbonyl)-6-oxodecahydropyrrolo[1,2-a][1,5]diazocin-5-yl)carbamoyl)naphthalen-2-yl)methyl)phosphonic acid], the IC50 at STAT3 was > 10 µM; on STAT6 it was 0.3 to 3 µM; at pSTAT6 (read-out: pSTAT6 IC50, compound 3 hrs, then 1 ng/mL IL-4 for 10 min, pY641-STAT6) it was > 3 µM.

In the case of `Cc1ccc2onc(C(=O)N3CC[C@H]4CC[C@@H](C(=O)N5CCN(c6cc(C(C(=O)N7C[C@H](O)C[C@H]7C(=O)N[C@H](C)c7ccc(-c8scnc8C)cc7)C(C)C)on6)CC5)N4C(=O)[C@@H](NC(=O)c4ccc5ccc(C(F)(F)P(=O)(O)O)cc5c4)C3)c2c1` (stereo partly drawn) [Compound 33, (difluoro(7-(((5S,8S,10aR)-8-(4-(5-(1-((2S,4R)-4-hydroxy-2-(((R)-1-(4-(4-methylthiazol-5-yl)phenyl)ethyl)carbamoyl)pyrrolidin-1-yl)-3-methyl-1-oxobutan-2-yl)isoxazol-3-yl)piperazine-1-carbonyl)-3-(5-methylbenzo[d]isoxazole-3-carbonyl)-6-oxodecahydropyrrolo[1,2-a][1,5]diazocin-5-yl)carbamoyl)naphthalen-2-yl)methyl)phosphonic acid], the IC50 at STAT3 (setting [1]) was 1 to 10 µM; on STAT6 (setting [2]), < 0.3 µM; at pSTAT6 (setting [3]) it was > 3 µM.

Regarding `Cc1ccc2onc(C(=O)N3CC[C@H]4CC[C@@H](C(=O)N5CCN(c6ccc7c(c6)[nH]c(=O)n7C6CCC(=O)NC6=O)CC5)N4C(=O)[C@@H](NC(=O)c4ccc5ccc(C(F)(F)P(=O)(O)O)cc5c4)C3)c2c1` (stereo partly drawn) [Compound 34, ((7-(((5S,8S,10aR)-8-(4-(1-(2,6-dioxopiperidin-3-yl)-2-oxo-2,3-dihydro-1H-benzo[d]imidazol-5-yl)piperazine-1-carbonyl)-3-(5-methylbenzo[d]isoxazole-3-carbonyl)-6-oxodecahydropyrrolo[1,2-a][1,5]diazocin-5-yl)carbamoyl)naphthalen-2-yl)difluoromethyl)phosphonic acid], the IC50 on STAT3 (setting [1]) is 1 to 10 µM; on STAT6 (setting [2]), < 0.3 µM; on pSTAT6 (setting [3]), > 3 µM.

Consider `Cc1ccc2onc(C(=O)N3CC[C@H]4CC[C@@H](C(=O)N5CCN(c6cccc7c6[nH]c(=O)n7C6CCC(=O)NC6=O)CC5)N4C(=O)[C@@H](NC(=O)c4ccc5ccc(C(F)(F)P(=O)(O)O)cc5c4)C3)c2c1` (stereo partly drawn) [Compound 36, ((7-(((5S,8S,10aR)-8-(4-(1-(2,6-dioxopiperidin-3-yl)-2-oxo-2,3-dihydro-1H-benzo[d]imidazol-4-yl)piperazine-1-carbonyl)-3-(5-methylbenzo[d]isoxazole-3-carbonyl)-6-oxodecahydropyrrolo[1,2-a][1,5]diazocin-5-yl)carbamoyl)naphthalen-2-yl)difluoromethyl)phosphonic acid], for which the IC50 was 1 to 10 µM on STAT3 (setting [1]), < 0.3 µM on STAT6 (setting [2]) and > 3 µM on pSTAT6 (setting [3]).

The record behind these values is patent publication US20260308186A1, “STAT DEGRADERS AND USES THEREOF” (Recludix Pharma, Inc., priority 2023, published 2026).
